In publication PMC5865166, “MultiBacMam Bimolecular Fluorescence Complementation (BiFC) tool-kit identifies new small-molecule inhibitors of the CDK5-p25 protein-protein interaction (PPI)” (Scientific Reports, 2018):

Key:
CDK5-p25 PPI = target: T1, CDK5-p25 PPI (Homo sapiens, UniProt Q00535+Q15078, D144N); assay: MultiBacMam BiFC assay of CDK5-p25 PPI in transduced U2OS cells (VN-CDK5(D144N)/VC-p25); settings: mammalian cell-based BiFC assay, versus published yeast-based data
T1 construct: The cleavage of p35 by the protease calpain generates p25; expressed in transfected cells; host or cells: U2OS cells transduced with MultiBacMam baculovirus
Method: (§1) Experiments were carried out in sterile, black clear-bottom 384 well plates (Cell carrier™ Perkin Elmer). U2OS cells were seed at density of cells 5 × 10^4 cells/well. After 3 hours, attached cells were transduced with 20 µl/well of viral stock dilution in PBS (Gibco) at multiplicity of infection (MOI) of 500 MOI. After were centrifuged during 30′ at 1500 rpm. Then plates were incubated at 37 °C during 5 hours. Thereafter the virus solution was replaced with 40 ul of complete growth medium containing 3 mM sodium butyrate (ABCR) with or without compound depending of the experiment. Cells were incubated for 16 hours at 37 °C with 5% of CO2. Finally plates were fixed with 4% paraformaldehyde (PFA) and stained with 5 µM Hoechst 33342 (Sigma-Aldrich). After 10 minutes of incubation at room temperature, plates were washed with PBS (GiBCO) and stored at 4 °C until imaging. For the immunostaining against p25 cells were permeabilized and stained with PBS, BSA 0.2% and Triton-X 100 0.5% and p35 (C-19) antibody from Santa Cruz Biotechnology (diluted 1:100 and incubated at 4 °C o/n). […]
(§2) Cells were transduced or transfected and fixed as described above. Cells were stored in PBS until automated fluorescence microscopy analysis with Opera. Fluorescence images were acquired using the Opera QEHS reader (Perkin-Elmer) using a 20x objective. […]

U2OS cells = assay: Total cell number / cytotoxicity in BiFC experiments; format: cell-based; settings: prohibited increasing the compound concentration to above 13 µM
Method: Experiments were carried out in sterile, black clear-bottom 384 well plates (Cell carrier™ Perkin Elmer). U2OS cells were seed at density of cells 5 × 10^4 cells/well. After 3 hours, attached cells were transduced with 20 µl/well of viral stock dilution in PBS (Gibco) at multiplicity of infection (MOI) of 500 MOI. After were centrifuged during 30′ at 1500 rpm. Then plates were incubated at 37 °C during 5 hours. Thereafter the virus solution was replaced with 40 ul of complete growth medium containing 3 mM sodium butyrate (ABCR) with or without compound depending of the experiment. Cells were incubated for 16 hours at 37 °C with 5% of CO2. Finally plates were fixed with 4% paraformaldehyde (PFA) and stained with 5 µM Hoechst 33342 (Sigma-Aldrich). After 10 minutes of incubation at room temperature, plates were washed with PBS (GiBCO) and stored at 4 °C until imaging. For the immunostaining against p25 cells were permeabilized and stained with PBS, BSA 0.2% and Triton-X 100 0.5% and p35 (C-19) antibody from Santa Cruz Biotechnology (diluted 1:100 and incubated at 4 °C o/n). Then, the plates were incubated for 2 hrs at 37 °C with a donkey anti-rabbit conjugated with the alexa fluor 647 secondary antibody (Invitrogen). Finally plates were washed with PBS and stored at 4 °C until imaging.
Supplementary Figure S2. Total cell number in BiFC experiments. […]

MLKL-RIPK3 PPI = target: T2, MLKL-RIPK3 PPI (Homo sapiens, UniProt Q8NB16+Q9Y572); assay: MLKL-RIPK3 BiFC counter assay in transduced U2OS cells (VN-MLKL/VC-RIPK3); format: cell-based; settings: counter screen, 16h treatment; CPDs even at high concentration
T2 construct: expressed in transfected cells; host or cells: U2OS cells transduced with MultiBacMam baculovirus
Method: as §1, with “imaging.” for “imaging. For the immunostaining against p25 cells were permeabilized and stained with PBS, BSA 0.2% and Triton-X 100 0.5% and p35 (C-19) antibody from Santa Cruz Biotechnology (diluted 1:100 and incubated at 4 °C o/n).”
as §2
(§3) Supplementary Figure S3. […] Then cells were treated with indicated amounts of compounds for 16h and percentage of BiFC positive cells was determined by High Content image analysis.

Tau dimerization = assay: Tau BiFC counter assay in transduced U2OS cells (VN-TAU/VC-TAU); format: cell-based; settings: counter screen, 16h treatment; CPDs even at high concentration
Method: as §1, with “imaging.” for “imaging. For the immunostaining against p25 cells were permeabilized and stained with PBS, BSA 0.2% and Triton-X 100 0.5% and p35 (C-19) antibody from Santa Cruz Biotechnology (diluted 1:100 and incubated at 4 °C o/n).”
as §2, §3

T1 sequence (Q00535 whole entry D144N): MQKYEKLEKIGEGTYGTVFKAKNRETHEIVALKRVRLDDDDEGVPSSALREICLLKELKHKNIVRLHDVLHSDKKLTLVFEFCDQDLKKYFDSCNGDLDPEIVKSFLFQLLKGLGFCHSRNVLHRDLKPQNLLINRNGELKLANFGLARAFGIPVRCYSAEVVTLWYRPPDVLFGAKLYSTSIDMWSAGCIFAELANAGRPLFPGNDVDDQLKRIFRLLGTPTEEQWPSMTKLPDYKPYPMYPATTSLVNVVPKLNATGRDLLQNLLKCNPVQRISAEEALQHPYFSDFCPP
T1 sequence (Q15078 99-307 limits assumed): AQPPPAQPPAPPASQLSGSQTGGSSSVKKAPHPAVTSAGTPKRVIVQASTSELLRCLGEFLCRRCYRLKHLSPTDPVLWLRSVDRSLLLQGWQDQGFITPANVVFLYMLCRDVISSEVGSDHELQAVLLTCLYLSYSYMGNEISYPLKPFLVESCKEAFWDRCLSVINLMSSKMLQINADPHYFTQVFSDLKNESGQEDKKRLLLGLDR
T2 sequence (Q8NB16 whole entry): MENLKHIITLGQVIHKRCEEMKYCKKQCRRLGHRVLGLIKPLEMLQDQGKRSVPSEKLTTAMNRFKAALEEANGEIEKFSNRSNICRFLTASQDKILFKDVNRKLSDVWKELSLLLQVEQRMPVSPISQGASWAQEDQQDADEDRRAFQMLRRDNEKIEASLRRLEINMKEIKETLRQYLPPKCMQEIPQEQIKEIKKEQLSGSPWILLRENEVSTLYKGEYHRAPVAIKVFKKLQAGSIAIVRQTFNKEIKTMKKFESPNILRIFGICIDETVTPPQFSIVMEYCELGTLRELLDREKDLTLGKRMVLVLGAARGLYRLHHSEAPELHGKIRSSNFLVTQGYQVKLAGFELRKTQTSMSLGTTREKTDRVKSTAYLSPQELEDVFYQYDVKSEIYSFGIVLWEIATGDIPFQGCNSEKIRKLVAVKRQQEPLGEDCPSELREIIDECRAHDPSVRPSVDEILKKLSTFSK
T2 sequence (Q9Y572 whole entry): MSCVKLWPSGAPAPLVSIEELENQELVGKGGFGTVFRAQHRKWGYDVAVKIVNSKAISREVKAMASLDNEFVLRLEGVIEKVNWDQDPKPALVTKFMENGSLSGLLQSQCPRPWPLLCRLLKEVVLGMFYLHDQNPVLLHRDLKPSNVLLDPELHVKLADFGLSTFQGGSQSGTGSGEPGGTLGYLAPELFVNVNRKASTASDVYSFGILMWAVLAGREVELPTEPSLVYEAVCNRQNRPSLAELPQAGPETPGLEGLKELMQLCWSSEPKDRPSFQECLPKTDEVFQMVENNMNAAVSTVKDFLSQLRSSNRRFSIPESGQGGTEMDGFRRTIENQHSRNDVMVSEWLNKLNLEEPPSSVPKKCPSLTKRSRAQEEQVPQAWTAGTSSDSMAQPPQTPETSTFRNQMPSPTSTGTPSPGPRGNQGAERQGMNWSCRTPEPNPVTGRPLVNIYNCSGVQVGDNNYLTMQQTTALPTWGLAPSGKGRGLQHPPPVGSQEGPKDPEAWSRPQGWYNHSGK

Structure (SMILES)	inhibitory effect on CDK5-p25 PPI (CDK5-p25 PPI)	toxic effect on the cells (U2OS cells)	effect on MLKL-RIPK3 PPI (MLKL-RIPK3 PPI)	effect on Tau dimerization (Tau dimerization)
C[C@@]12CCC[C@H]1[C@@H]1CC[C@H]3C[C@H](N)CC[C@]3(C)[C@H]1CC2 [3α-amino-5α-androstane]	did not reproduce this published data	toxic effect		
CC(C)CC(=O)Nc1[nH]nc2c1CN(C(=O)C1CCN(C)CC1)C2(C)C [pHA-793887]			non-specific fluorescence complementation inhibitor	non-specific fluorescence complementation inhibitor
